# Assay: recombinant barcode read abundance after kanamycin selection (control-corrected) (log10(CPM+1)); higher = more efficient recombination; sequences stand for … in AGTGCAGAGAAAATCGGCCAGTTTTCTCTGCCTGCAGTCCGCATGCCGT…AGATTTATGCAGCGGACTGCCTTTCTCCCAAAGTGATAAACCGGACAGTATCATGGACCGGTTTTCCCGGTAATCCGTATTTGCAAGGTTGGTTTCACT; site = the 11-nt target
# How it was run: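 Pooled E. coli screen pairing targets with IS621 bridge RNA target-binding loops. Each oligo (promoter, target, barcode, J23119-driven first 104 bridge RNA bases) was Gibson-cloned into a vector with the remaining 73 bp and T7-inducible recombinase, then co-electroporated with a donor plasmid. Two replicates each were plated on chloramphenicol/ampicillin LB agar (control) or chloramphenicol/ampicillin/kanamycin with 0.1 mM IPTG. Recombination efficiency is recombinant-junction barcode counts as CPM, averaged, control-corrected, reported as log10(CPM+1).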
# 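Further: IS621 recombinase and bridge RNA in Escherichia coli cells.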
row,Sequence,recombinant barcode read abundance (log10)
1,GTACTCTCTTGGGTTCTAACCTGTTGCAG (site GTACTCTCTCT),1.33
2,GTAGACCCTTGGGTTCTAACCTGTTGCTG (site GTAGACCCTAC),1.29
3,GTAGACCCTTGGGTTCTAACCTGTTGCTG (site GTAGACCCTCA),2.94
4,GTAGAGTCTTGGGTTCTAACCTGTTGCTT (site GTAGAGTCTAA),2.41
5,GTAGAGTCTTGGGTTCTAACCTGTTGCTT (site GTGGAGTCTAG),0.685
6,GTAGCCACTTGGGTTCTAACCTGTTGCCT (site GTAGCCACTAG),2.37
7,GTAGCCACTTGGGTTCTAACCTGTTGCCT (site GTCGCCACTAG),0.449
8,GTAGCCACTTGGGTTCTAACCTGTTGCCT (site GTGGCCACTAG),0.791
9,GTAGCCACTTGGGTTCTAACCTGTTGCCT (site GTTGCCACTAG),1.06
10,GTAGGCGCTTGGGTTCTAACCTGTTGCCT (site GTAGGCGCTAG),1.96
11,GTAGGCGCTTGGGTTCTAACCTGTTGCCT (site GTCGGCGCTAG),0.33
12,GTAGGCGCTTGGGTTCTAACCTGTTGCCT (site GTGGGCGCTAG),0.441
13,GTAGGCGCTTGGGTTCTAACCTGTTGCCT (site GTTGGCGCTAG),0.0331
14,GTAGGGACTTGGGTTCTAACCTGTTGCCT (site GAAGGGACTAG),1.34
15,GTAGGGACTTGGGTTCTAACCTGTTGCCT (site GCAGGGACTAG),0.806
16,GTAGGGACTTGGGTTCTAACCTGTTGCCT (site GGAGGGACTAG),0.439
17,GTAGGGACTTGGGTTCTAACCTGTTGCCT (site GTAGGGACTAG),1.97
18,GTAGGGTCTTGGGTTCTAACCTGTTGCCT (site GTAGGGTCTAG),2.41
19,GTAGGGTCTTGGGTTCTAACCTGTTGCCT (site TTGGGGTCTAG),0.324
20,GTATACCCTTGGGTTCTAACCTGTTGCAT (site GTATACCCTAT),2.34
21,GTATACCCTTGGGTTCTAACCTGTTGCAT (site GTATACCCTTG),0.224
22,GTATCCACTTGGGTTCTAACCTGTTGCTA (site GTATCCACTTA),1.47
23,GTATCCACTTGGGTTCTAACCTGTTGCTA (site GTATGCCCTTA),0.0561
24,GTATCCTCTTGGGTTCTAACCTGTTGCAT (site GTATCCTCTAT),2.28
25,GTATCCTCTTGGGTTCTAACCTGTTGCAT (site GTATGCTCTAC),0.0984
26,GTATCTCCTTGGGTTCTAACCTGTTGCGG (site GTATCTCCTCC),0.0723

row,Sequence,recombinant barcode read abundance (log10)
1,GTATCTCCTTGGGTTCTAACCTGTTGCGG (site GTCTCACCTCC),0.0668
2,GTATCTCCTTGGGTTCTAACCTGTTGCTT (site GTATCTCCTAA),0.321
3,GTATCTCCTTGGGTTCTAACCTGTTGCTT (site GTATTTCCTAA),0.136
4,GTATGTGCTTGGGTTCTAACCTGTTGCAA (site CTATGTGCTTC),0.0841
5,GTATGTGCTTGGGTTCTAACCTGTTGCAA (site GTATGTGCTTT),0.769
6,GTCAAACCTTGGGTTCTAACCTGTTGCTT (site GACAAACCTAG),0.274
7,GTCAAACCTTGGGTTCTAACCTGTTGCTT (site GTCAAACCTAA),0.46
8,GTCAAAGCTTGGGTTCTAACCTGTTGCCA (site GTCAAAGCTTG),0.0767
9,GTCAAAGCTTGGGTTCTAACCTGTTGCCA (site GTCACAGCTAG),0.407
10,GTCAACCCTTGGGTTCTAACCTGTTGCTG (site GTCAAACCTCA),0.045
11,GTCAACCCTTGGGTTCTAACCTGTTGCTG (site GTCAACCCTCA),2.49
12,GTCAACCCTTGGGTTCTAACCTGTTGCTG (site GTCAAGCCTCA),0.32
13,GTCAACCCTTGGGTTCTAACCTGTTGCTG (site GTCAATCCTCA),0.145
14,GTCAATCCTTGGGTTCTAACCTGTTGCTG (site GTCAAACCTCA),0.00666
15,GTCAATCCTTGGGTTCTAACCTGTTGCTG (site GTCAACCCTCA),0.288
16,GTCAATCCTTGGGTTCTAACCTGTTGCTG (site GTCAAGCCTCA),0.193
17,GTCAATCCTTGGGTTCTAACCTGTTGCTG (site GTCAATCCTCA),1.49
18,GTCACCGCTTGGGTTCTAACCTGTTGCCT (site GTAACCGCTAG),0.409
19,GTCACCGCTTGGGTTCTAACCTGTTGCCT (site GTCACCGCTAG),2.08
20,GTCACCGCTTGGGTTCTAACCTGTTGCCT (site GTGACCGCTAG),0.129
21,GTCACCGCTTGGGTTCTAACCTGTTGCCT (site GTTACCGCTAG),0.464
22,GTCATGGCTTGGGTTCTAACCTGTTGCCT (site GTCAGGGCTAG),0.0945
23,GTCATGGCTTGGGTTCTAACCTGTTGCCT (site GTCATGGCTAG),0.283
24,GTCCACTCTTGGGTTCTAACCTGTTGCAC (site GTCCACCCTCT),0.0658
25,GTCCACTCTTGGGTTCTAACCTGTTGCAC (site GTCCACTCTGT),2.21
26,GTCCAGTCTTGGGTTCTAACCTGTTGCGT (site GTCCACTCTAA),0.0578

row,Sequence,recombinant barcode read abundance (log10)
1,GTCCAGTCTTGGGTTCTAACCTGTTGCGT (site GTCCAGTCTAC),3.16
2,GTCCATTCTTGGGTTCTAACCTGTTGCAT (site GGACATTCTAT),0.101
3,GTCCATTCTTGGGTTCTAACCTGTTGCAT (site GTCCATTCTAT),1.56
4,GTCCTATCTTGGGTTCTAACCTGTTGCCA (site ACGGATCCTAT),0.0705
5,GTCCTATCTTGGGTTCTAACCTGTTGCCA (site GTCCTATCTTG),0.66
6,GTCGAACCTTGGGTTCTAACCTGTTGCTA (site GTCGAACCTTA),1.79
7,GTCGAACCTTGGGTTCTAACCTGTTGCTA (site GTCGTAGCTTA),0.0873
8,GTCGCGCCTTGGGTTCTAACCTGTTGCCT (site GTCGCGACTAG),0.221
9,GTCGCGCCTTGGGTTCTAACCTGTTGCCT (site GTCGCGCCTAG),0.271
10,GTCGCGCCTTGGGTTCTAACCTGTTGCCT (site GTCGCGGCTAG),0.219
11,GTCGCGCCTTGGGTTCTAACCTGTTGCCT (site GTCGCGTCTAG),0.58
12,GTCGGAACTTGGGTTCTAACCTGTTGCCT (site GTCGGAACTAG),1.73
13,GTCGGAACTTGGGTTCTAACCTGTTGCCT (site GTCGGCACTAG),0.329
14,GTCGGAACTTGGGTTCTAACCTGTTGCCT (site GTCGGGACTAG),0.174
15,GTCGGAACTTGGGTTCTAACCTGTTGCCT (site GTCGGTACTAG),0.0137
16,GTCGGTACTTGGGTTCTAACCTGTTGCCT (site GTCGGAACTAG),0.115
17,GTCGGTACTTGGGTTCTAACCTGTTGCCT (site GTCGGCACTAG),0.0645
18,GTCGGTACTTGGGTTCTAACCTGTTGCCT (site GTCGGGACTAG),0.0319
19,GTCGGTACTTGGGTTCTAACCTGTTGCCT (site GTCGGTACTAG),0.952
20,GTCGTCACTTGGGTTCTAACCTGTTGCCT (site GTCGTCACTAG),0.334
21,GTCGTCACTTGGGTTCTAACCTGTTGCCT (site GTCGTCCCTAG),0.0716
22,GTCGTCACTTGGGTTCTAACCTGTTGCCT (site GTCGTCGCTAG),0.15
23,GTCGTCACTTGGGTTCTAACCTGTTGCCT (site GTCGTCTCTAG),0.0772
24,GTCGTCCCTTGGGTTCTAACCTGTTGCCT (site GTCGTCACTAG),0.0509
25,GTCGTCCCTTGGGTTCTAACCTGTTGCCT (site GTCGTCCCTAG),0.315

# From the supplement of paper PMC11208160
